The pIC50 is the IC50 on a negative log10 scale, so that one unit is a factor of ten.

Results on 13 molecules are retold here after ChEMBL document CHEMBL1127286, “Quantitative structure-activity relationships study of endothelin-1 analogs” (Bioorg Med Chem Lett, 1994).

Test [1] addresses T1, Endothelin-1 receptor (Rattus norvegicus) (UniProt P26684).
T1 sequence (whole entry): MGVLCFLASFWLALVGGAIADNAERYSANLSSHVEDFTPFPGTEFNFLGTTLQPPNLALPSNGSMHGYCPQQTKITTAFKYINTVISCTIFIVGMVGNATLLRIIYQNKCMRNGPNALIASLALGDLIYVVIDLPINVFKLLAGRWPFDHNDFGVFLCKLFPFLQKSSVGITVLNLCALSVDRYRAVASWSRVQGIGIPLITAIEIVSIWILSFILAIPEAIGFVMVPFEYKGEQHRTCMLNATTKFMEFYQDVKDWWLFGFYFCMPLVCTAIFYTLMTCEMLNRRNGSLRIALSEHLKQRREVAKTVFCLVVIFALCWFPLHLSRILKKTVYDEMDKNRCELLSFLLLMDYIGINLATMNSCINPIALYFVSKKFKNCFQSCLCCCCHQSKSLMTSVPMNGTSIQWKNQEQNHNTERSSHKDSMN
Put plainly: Concentration required to produce 50% inhibition of binding against ET A receptor obtained from rat thoracic aortic membrane.

The target of test [2] is T2, Endothelin receptor type B (Rattus norvegicus) (UniProt P21451).
T2 sequence (whole entry): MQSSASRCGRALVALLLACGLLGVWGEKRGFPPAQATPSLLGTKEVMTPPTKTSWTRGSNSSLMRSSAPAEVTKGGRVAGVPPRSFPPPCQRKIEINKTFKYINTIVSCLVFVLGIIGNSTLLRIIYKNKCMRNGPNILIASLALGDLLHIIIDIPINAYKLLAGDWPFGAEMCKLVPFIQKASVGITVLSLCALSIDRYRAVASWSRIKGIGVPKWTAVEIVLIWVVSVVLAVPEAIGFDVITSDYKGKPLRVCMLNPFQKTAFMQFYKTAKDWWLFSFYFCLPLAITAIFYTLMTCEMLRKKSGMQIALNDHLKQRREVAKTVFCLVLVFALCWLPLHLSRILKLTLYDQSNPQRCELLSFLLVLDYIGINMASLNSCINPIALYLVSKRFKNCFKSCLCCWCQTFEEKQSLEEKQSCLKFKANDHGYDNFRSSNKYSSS
Put plainly: Concentration required to produce 50% inhibition of binding against ET B receptor obtained from rat brain membrane.

As to `CC[C@@H](C)[C@H](NC(=O)[C@H](CC(=O)O)NC(=O)[C@H](CC(C)C)NC(=O)[C@H](Cc1c[nH]cn1)NC(=O)[C@H](CS)NC(=O)[C@H](Cc1ccccc1)NC(=O)[C@H](Cc1ccc(O)cc1)NC(=O)[C@@H](NC(=O)[C@H](CS)NC(=O)[C@H](CCC(=O)O)NC(=O)[C@H](CCCCN)NC(=O)[C@H](CC(=O)O)NC(=O)[C@H](CCSC)NC(=O)[C@H](CC(C)C)NC(=O)[C@H](CO)NC(=O)[C@H](CO)NC(=O)[C@H](CS)NC(=O)[C@H](CO)NC(=O)[C@@H](N)CS)C(C)C)C(=O)N[C@H](CC(C)C)C(=O)N[C@@H](Cc1c[nH]c2ccccc12)C(=O)O`, the negative logarithm of the IC50 (pIC50) in test [1] turned out to be 7.97; in test [2] it was 9.94.

With `CC[C@@H](C)[C@H](NC(=O)[C@H](CC(=O)O)NC(=O)[C@H](CC(C)C)NC(=O)[C@H](Cc1c[nH]cn1)NC(=O)[C@H](CS)NC(=O)[C@H](Cc1ccccc1)NC(=O)[C@H](Cc1ccc(O)cc1)NC(=O)[C@@H](NC(=O)[C@H](CS)NC(=O)[C@H](CCC(=O)O)NC(=O)[C@H](CCCCN)NC(=O)[C@H](CC(=O)O)NC(=O)[C@H](CCSC)NC(=O)[C@H](CC(C)C)NC(=O)[C@H](CO)NC(=O)[C@H](CO)NC(=O)[C@H](CS)NC(=O)[C@H](CO)NC(=O)[C@@H](N)CS)C(C)C)C(=O)N[C@@H](C(=O)N[C@@H](Cc1c[nH]c2ccccc12)C(=O)O)c1ccccc1`, the negative-log IC50 (pIC50) worked out at 6.85 in test [1] and 8.6 in test [2].

Consider `CC[C@@H](C)[C@H](NC(=O)[C@H](CC(=O)O)NC(=O)[C@H](CC(C)C)NC(=O)[C@H](Cc1c[nH]cn1)NC(=O)[C@H](CS)NC(=O)[C@H](Cc1ccccc1)NC(=O)[C@H](Cc1ccc(O)cc1)NC(=O)[C@@H](NC(=O)[C@H](CS)NC(=O)[C@H](CCC(=O)O)NC(=O)[C@H](CCCCN)NC(=O)[C@H](CC(=O)O)NC(=O)[C@H](CCSC)NC(=O)[C@H](CC(C)C)NC(=O)[C@H](CO)NC(=O)[C@H](CO)NC(=O)[C@H](CS)NC(=O)[C@H](CO)NC(=O)[C@@H](N)CS)C(C)C)C(=O)N[C@H](Cc1c[nH]cn1)C(=O)N[C@@H](Cc1c[nH]c2ccccc12)C(=O)O`, for which the pIC50 in test [1] came out at 6.13; in test [2], 7.55.

Consider `CC[C@@H](C)[C@H](NC(=O)[C@H](CC(=O)O)NC(=O)[C@H](CC(C)C)NC(=O)[C@H](Cc1c[nH]cn1)NC(=O)[C@H](CS)NC(=O)[C@H](Cc1ccccc1)NC(=O)[C@H](Cc1ccc(O)cc1)NC(=O)[C@@H](NC(=O)[C@H](CS)NC(=O)[C@H](CCC(=O)O)NC(=O)[C@H](CCCCN)NC(=O)[C@H](CC(=O)O)NC(=O)[C@H](CCSC)NC(=O)[C@H](CC(C)C)NC(=O)[C@H](CO)NC(=O)[C@H](CO)NC(=O)[C@H](CS)NC(=O)[C@H](CO)NC(=O)[C@@H](N)CS)C(C)C)C(=O)N[C@H](C(=O)N[C@@H](Cc1c[nH]c2ccccc12)C(=O)O)[C@H](C)CC`, for which the pIC50 in test [1] is 9.93.

In the case of `CC[C@@H](C)[C@H](NC(=O)[C@H](CC(=O)O)NC(=O)[C@H](CC(C)C)NC(=O)[C@H](Cc1c[nH]cn1)NC(=O)[C@H](CS)NC(=O)[C@H](Cc1ccccc1)NC(=O)[C@H](Cc1ccc(O)cc1)NC(=O)[C@@H](NC(=O)[C@H](CS)NC(=O)[C@H](CCC(=O)O)NC(=O)[C@H](CCCCN)NC(=O)[C@H](CC(=O)O)NC(=O)[C@H](CCSC)NC(=O)[C@H](CC(C)C)NC(=O)[C@H](CO)NC(=O)[C@H](CO)NC(=O)[C@H](CS)NC(=O)[C@H](CO)NC(=O)[C@@H](N)CS)C(C)C)C(=O)N[C@@H](C(=O)N[C@@H](Cc1c[nH]c2ccccc12)C(=O)O)[C@H](C)CC`, the negative-log IC50 (pIC50) in test [1] was found to be 7.59.

Turning to `CC[C@@H](C)[C@H](NC(=O)[C@H](CC(=O)O)NC(=O)[C@H](CC(C)C)NC(=O)[C@H](Cc1c[nH]cn1)NC(=O)[C@H](CS)NC(=O)[C@H](Cc1ccccc1)NC(=O)[C@H](Cc1ccc(O)cc1)NC(=O)[C@@H](NC(=O)[C@H](CS)NC(=O)[C@H](CCC(=O)O)NC(=O)[C@H](CCCCN)NC(=O)[C@H](CC(=O)O)NC(=O)[C@H](CCSC)NC(=O)[C@H](CC(C)C)NC(=O)[C@H](CO)NC(=O)[C@H](CO)NC(=O)[C@H](CS)NC(=O)[C@H](CO)NC(=O)[C@@H](N)CS)C(C)C)C(=O)N[C@@H](C)C(=O)N[C@@H](Cc1c[nH]c2ccccc12)C(=O)O`, the results for the pIC50 in test [1] and in test [2] were 7.53 and 9.4, respectively.

Take `CC[C@@H](C)[C@H](NC(=O)[C@H](CC(=O)O)NC(=O)[C@H](CC(C)C)NC(=O)[C@H](Cc1c[nH]cn1)NC(=O)[C@H](CS)NC(=O)[C@H](Cc1ccccc1)NC(=O)[C@H](Cc1ccc(O)cc1)NC(=O)[C@@H](NC(=O)[C@H](CS)NC(=O)[C@H](CCC(=O)O)NC(=O)[C@H](CCCCN)NC(=O)[C@H](CC(=O)O)NC(=O)[C@H](CCSC)NC(=O)[C@H](CC(C)C)NC(=O)[C@H](CO)NC(=O)[C@H](CO)NC(=O)[C@H](CS)NC(=O)[C@H](CO)NC(=O)[C@@H](N)CS)C(C)C)C(=O)N[C@@H](C(=O)N[C@@H](Cc1c[nH]c2ccccc12)C(=O)O)C1CCCCC1`: the pIC50 in test [1] was 7.04; in test [2] it was 9.59.

Take `CC[C@@H](C)[C@H](NC(=O)[C@H](CC(=O)O)NC(=O)[C@H](CC(C)C)NC(=O)[C@H](Cc1c[nH]cn1)NC(=O)[C@H](CS)NC(=O)[C@H](Cc1ccccc1)NC(=O)[C@H](Cc1ccc(O)cc1)NC(=O)[C@@H](NC(=O)[C@H](CS)NC(=O)[C@H](CCC(=O)O)NC(=O)[C@H](CCCCN)NC(=O)[C@H](CC(=O)O)NC(=O)[C@H](CCSC)NC(=O)[C@H](CC(C)C)NC(=O)[C@H](CO)NC(=O)[C@H](CO)NC(=O)[C@H](CS)NC(=O)[C@H](CO)NC(=O)[C@@H](N)CS)C(C)C)C(=O)N[C@H](C)C(=O)N[C@@H](Cc1c[nH]c2ccccc12)C(=O)O`: the figures for the negative-log IC50 (pIC50) in test [1] and in test [2] were 5.77 and 7.96, respectively.

For the molecule `CC[C@@H](C)[C@H](NC(=O)[C@H](CC(=O)O)NC(=O)[C@H](CC(C)C)NC(=O)[C@H](Cc1c[nH]cn1)NC(=O)[C@H](CS)NC(=O)[C@H](Cc1ccccc1)NC(=O)[C@H](Cc1ccc(O)cc1)NC(=O)[C@@H](NC(=O)[C@H](CS)NC(=O)[C@H](CCC(=O)O)NC(=O)[C@H](CCCCN)NC(=O)[C@H](CC(=O)O)NC(=O)[C@H](CCSC)NC(=O)[C@H](CC(C)C)NC(=O)[C@H](CO)NC(=O)[C@H](CO)NC(=O)[C@H](CS)NC(=O)[C@H](CO)NC(=O)[C@@H](N)CS)C(C)C)C(=O)N[C@H](CCC(N)=O)C(=O)N[C@@H](Cc1c[nH]c2ccccc12)C(=O)O`, the negative-log IC50 (pIC50) in test [1] was found to be 5.27; in test [2], 5.59.

In the case of `CCC[C@@H](NC(=O)[C@@H](NC(=O)[C@H](CC(=O)O)NC(=O)[C@H](CC(C)C)NC(=O)[C@H](Cc1c[nH]cn1)NC(=O)[C@H](CS)NC(=O)[C@H](Cc1ccccc1)NC(=O)[C@H](Cc1ccc(O)cc1)NC(=O)[C@@H](NC(=O)[C@H](CS)NC(=O)[C@H](CCC(=O)O)NC(=O)[C@H](CCCCN)NC(=O)[C@H](CC(=O)O)NC(=O)[C@H](CCSC)NC(=O)[C@H](CC(C)C)NC(=O)[C@H](CO)NC(=O)[C@H](CO)NC(=O)[C@H](CS)NC(=O)[C@H](CO)NC(=O)[C@@H](N)CS)C(C)C)[C@H](C)CC)C(=O)N[C@@H](Cc1c[nH]c2ccccc12)C(=O)O`, the values for the pIC50 in test [1] and in test [2] were 7.6 and 10, respectively.

With `CCC(CC)C[C@@H](NC(=O)[C@@H](NC(=O)[C@H](CC(=O)O)NC(=O)[C@H](CC(C)C)NC(=O)[C@H](Cc1c[nH]cn1)NC(=O)[C@H](CS)NC(=O)[C@H](Cc1ccccc1)NC(=O)[C@H](Cc1ccc(O)cc1)NC(=O)[C@@H](NC(=O)[C@H](CS)NC(=O)[C@H](CCC(=O)O)NC(=O)[C@H](CCCCN)NC(=O)[C@H](CC(=O)O)NC(=O)[C@H](CCSC)NC(=O)[C@H](CC(C)C)NC(=O)[C@H](CO)NC(=O)[C@H](CO)NC(=O)[C@H](CS)NC(=O)[C@H](CO)NC(=O)[C@@H](N)CS)C(C)C)[C@H](C)CC)C(=O)N[C@@H](Cc1c[nH]c2ccccc12)C(=O)O`, the pIC50 was 8.06 in test [1] and 9.78 in test [2].

Turning to `CC[C@@H](C)[C@H](NC(=O)[C@H](CC(=O)O)NC(=O)[C@H](CC(C)C)NC(=O)[C@H](Cc1c[nH]cn1)NC(=O)[C@H](CS)NC(=O)[C@H](Cc1ccccc1)NC(=O)[C@H](Cc1ccc(O)cc1)NC(=O)[C@@H](NC(=O)[C@H](CS)NC(=O)[C@H](CCC(=O)O)NC(=O)[C@H](CCCCN)NC(=O)[C@H](CC(=O)O)NC(=O)[C@H](CCSC)NC(=O)[C@H](CC(C)C)NC(=O)[C@H](CO)NC(=O)[C@H](CO)NC(=O)[C@H](CS)NC(=O)[C@H](CO)NC(=O)[C@@H](N)CS)C(C)C)C(=O)N[C@@H](C(=O)N[C@@H](Cc1c[nH]c2ccccc12)C(=O)O)C(C)C`, the negative logarithm of the IC50 (pIC50) came out at 9 in test [1] and 9.05 in test [2].

With `CC[C@@H](C)[C@H](NC(=O)[C@H](CC(=O)O)NC(=O)[C@H](CC(C)C)NC(=O)[C@H](Cc1c[nH]cn1)NC(=O)[C@H](CS)NC(=O)[C@H](Cc1ccccc1)NC(=O)[C@H](Cc1ccc(O)cc1)NC(=O)[C@@H](NC(=O)[C@H](CS)NC(=O)[C@H](CCC(=O)O)NC(=O)[C@H](CCCCN)NC(=O)[C@H](CC(=O)O)NC(=O)[C@H](CCSC)NC(=O)[C@H](CC(C)C)NC(=O)[C@H](CO)NC(=O)[C@H](CO)NC(=O)[C@H](CS)NC(=O)[C@H](CO)NC(=O)[C@@H](N)CS)C(C)C)C(=O)N[C@H](C(=O)N[C@@H](Cc1c[nH]c2ccccc12)C(=O)O)c1ccccc1`, the pIC50 came out at 8.89 in test [1] and 9.76 in test [2].
